Values joined by “and” are separate entries in the source; they are usually repeats but may differ in a detail not shown here. Identical values can stand only once.

From patent US6589971B1, “Bis-benzazoles and their use as antineoplastic agents” (The Queens University of Belfast, priority 1999, dated 2003) come the findings set out here.

The subject of one data set is A2780. Description: Cytotoxicity (growth inhibition), 96 hour exposure, ovarian cell line panel. The note with it: read-out: Cytotoxicity IC50, A2780.
The next data set concerns A2780-PT^R. The data set is described as above. The note with it: read-out: Cytotoxicity IC50, A2780-PT^R.
For another data set, the system named is SKOV-3. Described as above. The note with it: read-out: Cytotoxicity IC50, SKOV-3, SKOV-3 ovarian cell line.
In a further data set the test system is CH1. The data set is described as above. The note with it: read-out: Cytotoxicity IC50, CH1.
In data set [1] the test system is A/T sites of a natural DNA fragment. Description: DNase I footprinting with a natural DNA fragment. Format: binding. The conditions noted are these: for DNA site preference: natural DNA fragment. From the text:
The ability of the head-to-head bis-benzimidazoles to discriminate between the 136 possible tetranucleotide sequences may be further enhanced by flanking sequence preferences. These remain to be systematically explored.

The test system of data set [2] is ovarian carcinoma cell lines. In words: Cytotoxicity across the group of four ovarian carcinoma cell lines. Type of data set: cell-based, human. The note with it: versus compounds 8 and 9; in three out of the four lines.
Experimental: Assessment of growth inhibition was performed in a small panel of (e.g.) human ovarian carcinoma cell lines using the Sulforhodamine B (SRB assay) (Kelland et al, Cancer Research 54, 5618-5622 (1994). The cell lines grew as monolayers in Dulbecco's Modified Eagle's medium containing 10% foetal bovine serum (Imperial Laboratories, Andover, UK) supplemented with 2 mM glutamine and 0.5 μg/ml hydrocortisone in 6% CO2/94% air. The compound to be tested was dissolved in 10% dimethylsulfoxide. Cells were seeded into 96-well microtitre plates at 3000-5000 per well and allowed to attach overnight. Serial dilutions of drug in growth medium were then added to quadruplicate wells (with 8 control untreated wells) and left to incubate under normal growth conditions for 96 hr, unless otherwise stated. The medium was then removed and wells fixed with 10% trichloroacetic acid and stained with 0.4% SRB in 1% acetic acid as described previously (Kelland et al ref). Basic amino acid content in each well was then measured by solubilizing the bound SRB with 10 mM Tris and using a Titertek Multiscan MCC/340 MKII plate reader set at 540 nm. Mean absorbance was then expressed as a percentage of the control untreated well absorbance and plotted vs drug concentration. […]
The subject of data set [3] is ovarian lines in the NCI 60-cell line panel. In words: NCI 60-cell line panel. The conditions noted are these: several ovarian lines. Format: cell-based.
Data set [4] has as its system transcription at A/T sites. In words: In vitro transcription assay. Type of data set: biochemical. From the text:
Compound (13) has been examined in an in vitro transcription assay. […] In addition, compound (13) inhibited transcription at least 10-fold more efficiently than compound (9), consistent with its increased cytoxicity. It is thus tempting to speculate that the activity of (13) in vitro and in vivo may be related to its potent ability to inhibit transcription specifically at a small sub-set of A/T sites.

The next data set deals with MCF-7 (breast). In words: Growth inhibition, carcinoma cell lines (MTT assay or cell counting). Format: cell-based. The conditions noted are these: 96 hour exposure, repeat determinations. On the procedure:
Compounds 8 and 13 were then tested more extensively against a range of carcinoma cell lines: MCF-7 (breast,); RKO and H630 (colon); A2780 and OAW42 (ovary) and H838 (lung).
Figures in bold were determined using cell counting method, all other values by the MTT assay.
The growth inhibition assays reported above were carried out using standard techniques, some examples of which are detailed below.
(In general: Tetrazolium assays rely on reduction of a dye to a coloured formazan, in cell work by metabolically active cells.)

Experimental for A2780-PT^R: (§1) Assessment of growth inhibition was performed in a small panel of (e.g.) human ovarian carcinoma cell lines using the Sulforhodamine B (SRB assay) (Kelland et al, Cancer Research 54, 5618-5622 (1994). The cell lines grew as monolayers in Dulbecco's Modified Eagle's medium containing 10% foetal bovine serum (Imperial Laboratories, Andover, UK) supplemented with 2 mM glutamine and 0.5 μg/ml hydrocortisone in 6% CO2/94% air. The compound to be tested was dissolved in 10% dimethylsulfoxide. Cells were seeded into 96-well microtitre plates at 3000-5000 per well and allowed to attach overnight. Serial dilutions of drug in growth medium were then added to quadruplicate wells (with 8 control untreated wells) and left to incubate under normal growth conditions for 96 hr, unless otherwise stated. The medium was then removed and wells fixed with 10% trichloroacetic acid and stained with 0.4% SRB in 1% acetic acid as described previously (Kelland et al ref). Basic amino acid content in each well was then measured by solubilizing the bound SRB with 10 mM Tris and using a Titertek Multiscan MCC/340 MKII plate reader set at 540 nm. Mean absorbance was then expressed as a percentage of the control untreated well absorbance and plotted vs drug concentration. Comparisons were made in terms of IC50 values, (the concentration that reduced the mean absorbance to 50% of those in control wells) and Resistance Factors (RF, the IC50 in a resistant subline vs its parent line).
Experimental for CH1: as §1
Experimental for SKOV-3: as §1

With `CN1CCN(c2ccc3[nH]c(-c4ccc5[nH]c(-c6ccc(O)cc6)nc5c4)nc3c2)CC1` [Hoechst 33258, reference compound], the IC50 in the data set on A2780 was 12000 nM; in the data set with A2780-PT^R it was 9500 nM; with SKOV-3 it was > 100000 nM; with CH1, 26500 nM.
As for `Oc1ccc(-c2nc3cc(-c4ccc5[nH]c(-c6ccc(O)cc6)nc5c4)ccc3[nH]2)cc1` [Compound 9, 4′,4′-[5,5-bi-1H-Benzimidazole]-2,2-diylbis-phenol], the IC50 in the data set with A2780 is 4300 nM; in the data set with A2780-PT^R it was 2700 nM; in the data set on SKOV-3, 16000 nM; in the data set on CH1 it was 1050 nM. The DNA site preference result in [1] was “interact preferentially with some A/T sites”.
As to `CN(C)CCCOc1ccc(-c2nc3cc(-c4ccc5[nH]c(-c6ccc(OCCCN(C)C)cc6)nc5c4)ccc3[nH]2)cc1` [Compound 13, 2,2-bis-[4′-(3″-Dimethylamino-1″-propyloxy)phenyl]-5,5-bi-1H-benzimidazole], the “cytotoxic activity, fold more active than the others” value in [2] was “over 10 fold”. For the same compound, the IC50 in the data set on A2780 was 235 nM; in the data set with A2780-PT^R, 115 nM; in the data set with SKOV-3 it was 375 nM; with CH1, 240 nM; in the data set on MCF-7 (breast), 43 nM and 69 nM. The “activity in ovarian lines of NCI 60-cell line panel” value in [3] is given as “significant activity”. The “affinity for 5′-TATA sites” value in [1] (5′-TATA sites) is listed as “relatively low affinity”. Besides, the DNA site preference entry in data set [1] is given as “interact preferentially with some A/T sites”. Moreover, in data set [1] (quantitative DNase I footprinting, 5′-AATT site, read-out: affinity for the 5′-AATT site), the Kd was determined as 30 nM. Further, in data set [1] (relative to compound (9)), the “binding to AT-sites, fold better than compound (9)” value is recorded as 7-10 fold. The inhibition of transcription result in [4] (at a number of A/T sites) is reported as “effectively inhibits transcription at a number of A/T sites”. In addition, the “inhibition of transcription, fold more efficient than compound (9)” value in data set [4] (relative to compound (9)) is “at least 10 fold”.

Broadly, the IC50 is the concentration needed to halve the response being measured.
